Source: patent US7338958B2, “Sulfoximine-substituted pyrimidines as CDK-and/or VEGF inhibitors, their production and use as pharmaceutical agents” (Schering AG, priority 2003, dated 2008)
Structures can show the parent of a compound that is named as a salt.

Key:
[1] = test system: MCF7, hormone-independent human breast cancer cells; test: Proliferation assay, MCF7; assay type: cell-based; conditions: MCF7, 96 h, 4 days incubation, crystal violet
Procedure, shortened: (§1)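 Cells seeded ~5000/well, treated after 24 h with 0.01-30 μM compound (0.5% DMSO) for 4 days. Glutaraldehyde-fixed cells stained with crystal violet, absorbance at 595 nm; growth expressed as percent, normalized to zero-point plate (0%) and untreated cells (100%).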

[2] = test system: NCI-H460, human non-small-cell lung cancer cells; test: Proliferation assay, H460; assay type: cell-based; conditions: NCI-H460, 96 h, 4 days incubation, crystal violet
Text: (§2) Cultivated human tumor cells (MCF7, hormone-independent human breast cancer cells, related to ATCC HTB22; NCI-H460, human non-small-cell lung cancer cells, ATCC HTB-177, HCT 116, human colon cancer cells, ATCC CCL-247; DU 145, hormone-independent human prostate cancer cells, ATCC HTB-81; MaTu-MDR, hormone-independent, multiple pharmaceutical agent-resistant human breast cancer cells, EPO-GmbH, Berlin) were flattened out at a density of about 5000 cells/measuring point, depending on the growth rate of the respective cells, in a 96-well multititer plate in 200 μl of the corresponding growth medium. After 24 hours, the cells of one plate (zero-point plate) were colored with crystal violet (see below), while the medium of the other plates was replaced by fresh culture medium (200 μl), to which the test substances were added in various concentrations (0 μm, as well as in the range of 0.01-30 μm; the final concentration of the solvent dimethyl sulfoxide was 0.5%). The cells were incubated for 4 days in the presence of test substances. The cell proliferation was determined by coloring the cells with crystal violet: the cells were fixed by adding 20 μl/measuring point of an 11% glutaric aldehyde solution for 15 minutes at room temperature. After three washing cycles of the fixed cells with water, the plates were dried at room temperature. The cells were colored by adding 100 μl/measuring point of a 0.1% crystal violet solution (the pH was set at 3 by adding acetic acid). After three washing cycles of the colored cells with water, the plates were dried at room temperature. The dye was dissolved by adding 100 μl/measuring point of a 10% acetic acid solution. The extinction was determined by photometry at a wavelength of 595 nm. The change of cell growth, in percent, was calculated by normalization of the measured values to the extinction values of the zero-point plate (=0%) and the extinction of the untreated (0 μm) cells (=100%).

[3] = test system: HCT 116, human colon cancer cells; test: Proliferation assay, HCT116; assay type: cell-based; conditions: HCT-116, 96 h, 4 days incubation, crystal violet
Text: as §2

[4] = test system: DU 145, hormone-independent human prostate cancer cells; test: Proliferation assay, DU145; assay type: cell-based; conditions: DU-145, 96 h, 4 days incubation, crystal violet
Procedure, shortened: as §1

MaTu-ADR = test: Proliferation assay, MaTu-ADR; assay type: cell-based; conditions: Homo sapiens, 96 h, MaTu-ADR cells, 4 days incubation, crystal violet
Text: as §2

CDK1/CycB = target: T1, CDK1/CycB (Homo sapiens, UniProt P06493); test: CDK1/CycB Kinase Assay; assay type: biochemical; conditions: histone IIIS substrate, 33P-ATP, 15 minutes at 22° C.
T1 construct: GST; purchased ProQinase GmbH, Freiburg; host or cells: baculovirus-infected insect cells (Sf9)
T1 sequence (P06493 whole entry): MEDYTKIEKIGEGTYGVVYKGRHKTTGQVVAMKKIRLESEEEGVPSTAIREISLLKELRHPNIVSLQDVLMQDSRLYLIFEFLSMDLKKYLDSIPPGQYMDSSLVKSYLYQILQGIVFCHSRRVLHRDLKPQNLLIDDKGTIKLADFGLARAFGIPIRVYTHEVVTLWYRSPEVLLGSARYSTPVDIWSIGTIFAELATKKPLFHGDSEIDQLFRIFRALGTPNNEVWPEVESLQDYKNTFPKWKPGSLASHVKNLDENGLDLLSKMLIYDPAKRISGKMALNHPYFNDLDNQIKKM
T1 sequence (P14635 whole entry partner): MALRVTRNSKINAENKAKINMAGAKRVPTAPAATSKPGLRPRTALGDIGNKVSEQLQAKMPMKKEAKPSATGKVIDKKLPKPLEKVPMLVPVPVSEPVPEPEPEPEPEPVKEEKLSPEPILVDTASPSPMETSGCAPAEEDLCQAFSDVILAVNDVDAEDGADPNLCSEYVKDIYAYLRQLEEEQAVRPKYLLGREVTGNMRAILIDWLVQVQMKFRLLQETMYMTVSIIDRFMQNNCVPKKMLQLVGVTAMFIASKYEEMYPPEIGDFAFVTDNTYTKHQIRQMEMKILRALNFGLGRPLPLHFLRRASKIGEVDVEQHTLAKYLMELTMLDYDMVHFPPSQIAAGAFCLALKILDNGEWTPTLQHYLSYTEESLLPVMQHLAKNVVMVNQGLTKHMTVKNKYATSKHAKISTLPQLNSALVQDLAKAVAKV

[5] = target: T2, VEGF receptor tyrosine kinase-2 (Homo sapiens, UniProt P35968); test: VEGF Receptor-2 Kinase Assay; assay type: biochemical; conditions: poly-(Glu4Tyr) substrate, 33P-ATP, 10 minutes at 22° C.; read-out: VEGF-R2 IC50
T2 construct: GST; made in house; host or cells: baculovirus-infected insect cells (Sf9)
T2 sequence (P35968 20-1356): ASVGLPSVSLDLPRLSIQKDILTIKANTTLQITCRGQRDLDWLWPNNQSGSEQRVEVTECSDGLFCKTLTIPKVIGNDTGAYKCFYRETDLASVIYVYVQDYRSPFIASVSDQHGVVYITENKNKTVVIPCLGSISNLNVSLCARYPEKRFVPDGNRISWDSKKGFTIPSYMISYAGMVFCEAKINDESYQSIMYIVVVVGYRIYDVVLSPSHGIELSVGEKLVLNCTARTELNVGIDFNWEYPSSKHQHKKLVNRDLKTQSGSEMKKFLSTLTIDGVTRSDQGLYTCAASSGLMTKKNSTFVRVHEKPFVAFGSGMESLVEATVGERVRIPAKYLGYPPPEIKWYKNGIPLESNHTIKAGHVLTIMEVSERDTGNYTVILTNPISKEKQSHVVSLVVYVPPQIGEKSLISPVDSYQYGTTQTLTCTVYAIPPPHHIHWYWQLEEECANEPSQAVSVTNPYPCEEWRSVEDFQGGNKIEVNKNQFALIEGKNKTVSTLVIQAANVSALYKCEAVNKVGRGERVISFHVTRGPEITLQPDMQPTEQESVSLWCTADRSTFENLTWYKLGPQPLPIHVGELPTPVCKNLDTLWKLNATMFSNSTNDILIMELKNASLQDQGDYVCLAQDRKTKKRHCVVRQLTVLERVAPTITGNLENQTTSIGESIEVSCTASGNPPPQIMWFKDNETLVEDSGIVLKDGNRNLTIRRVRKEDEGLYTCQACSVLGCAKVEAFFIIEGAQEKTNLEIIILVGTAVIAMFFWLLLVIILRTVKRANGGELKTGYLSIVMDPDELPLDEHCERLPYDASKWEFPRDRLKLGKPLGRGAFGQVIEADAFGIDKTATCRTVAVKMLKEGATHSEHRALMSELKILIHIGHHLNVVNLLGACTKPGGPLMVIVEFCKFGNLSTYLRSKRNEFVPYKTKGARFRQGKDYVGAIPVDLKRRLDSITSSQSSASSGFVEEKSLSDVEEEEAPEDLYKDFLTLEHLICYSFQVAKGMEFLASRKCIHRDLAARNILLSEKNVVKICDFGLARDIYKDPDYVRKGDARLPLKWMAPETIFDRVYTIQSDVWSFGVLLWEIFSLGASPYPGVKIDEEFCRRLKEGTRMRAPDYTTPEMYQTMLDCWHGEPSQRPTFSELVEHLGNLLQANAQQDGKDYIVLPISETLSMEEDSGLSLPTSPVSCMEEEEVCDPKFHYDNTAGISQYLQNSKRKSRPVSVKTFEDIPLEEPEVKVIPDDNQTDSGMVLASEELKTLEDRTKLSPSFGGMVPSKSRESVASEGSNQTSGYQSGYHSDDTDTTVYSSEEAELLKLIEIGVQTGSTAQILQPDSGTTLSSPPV

CDK2/CycE = target: T3, CDK2/CycE (Homo sapiens, UniProt P24941); test: CDK2/CycE Kinase Assay; assay type: biochemical; conditions: histone IIIS substrate, 33P-ATP, 15 minutes at 22° C.
T3 construct: GST; purchased ProQinase GmbH, Freiburg; host or cells: baculovirus-infected insect cells (Sf9)
Procedure, shortened: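 Recombinant GST-tagged CDK2/CycE from Sf9 cells (50 ng/point) was incubated with compound (0.01-100 μM) for 15 min at 22° C, pH 8.0, with 0.5 μM ATP plus ^33P-γ-ATP and histone IIIS as substrate, in 12.5% DMSO. Incorporated ^33P was counted after filter binding and washing.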

Compound: C[C@@H](O)[C@@H](C)Oc1nc(Nc2ccc(S(C)(=N)=O)cc2)ncc1Br (mixture of isomers) [Example 1.4, (RS)-S-[4-({5-bromo-4-[(1R,2R)-2-hydroxy-1-methylpropoxy]pyrimidin-2-yl}amino)phenyl]-S-methyl sulfoximide]
- IC50 [1]: 60 nM
- IC50 [2]: 60 nM
- IC50 [3]: 50 nM
- IC50 [4]: 100 nM
- IC50 (MaTu-ADR): 80 nM
- IC50 (CDK1/CycB): 13 nM
- IC50 [5]: 340 nM

Compound: CCOC(=O)N=S(C)(=O)c1ccc(Nc2ncc(Br)c(N[C@H](C)C(C)(C)O)n2)cc1C (mixture of isomers) [Example 1.37, (RS)-S-[4-({5-bromo-4-[(R)-(2-hydroxy-1,2-dimethylpropyl)amino]pyrimidin-2-yl}amino)-2-methylphenyl]-N-(ethoxycarbonyl)-S-methyl sulfoximide]
- IC50 [1]: 170 nM
- IC50 [2]: < 100 nM
- IC50 [4]: 160 nM
- IC50 (MaTu-ADR): 300 nM
- IC50 (CDK2/CycE): 48 nM
- IC50 (CDK1/CycB): 63 nM
- IC50 [5]: 57 nM

Compound: CCOC(=O)N=S(C)(=O)c1ccc(Nc2ncc(Br)c(N[C@H](C)[C@@H](C)O)n2)cc1C (mixture of isomers) [Example 1.38, (RS)-S-[4-({5-bromo-4-[(1R,2R)-(2-hydroxy-1-methylpropyl)amino]pyrimidin-2-yl}amino)-2-methylphenyl]-N-(ethoxycarbonyl)-S-methyl sulfoximide]
- IC50 [1]: 120 nM
- IC50 [2]: 60 nM
- IC50 [4]: 130 nM
- IC50 (MaTu-ADR): 400 nM
- IC50 (CDK2/CycE): 78 nM
- IC50 (CDK1/CycB): 75 nM
- IC50 [5]: 59 nM

Compound: CCOC(=O)N=S(C)(=O)c1ccc(Nc2ncc(Br)c(O[C@H](C)[C@@H](C)O)n2)cc1 (mixture of isomers) [Example 1.40, (RS)-S-[4-({5-bromo-4-[(1R,2R)-2-hydroxy-1-methylpropoxy]pyrimidin-2-yl}amino)phenyl]-N-(ethoxycarbonyl)-S-methyl sulfoximide]
- IC50 [1]: 110 nM
- IC50 [2]: 170 nM
- IC50 [4]: 180 nM
- IC50 (MaTu-ADR): 300 nM
- IC50 (CDK2/CycE): 14 nM
- IC50 (CDK1/CycB): 21 nM
- IC50 [5]: 110 nM

Compound: Cc1cc(Nc2ncc(Br)c(N[C@H](C)[C@@H](C)O)n2)ccc1S(C)(=N)=O (mixture of isomers) [Example 1.60, (RS)-S-[4-({5-bromo-4-[(1R,2R)-(2-hydroxy-1-methylpropyl)amino]pyrimidin-2-yl}amino)-2-methylphenyl]-S-methyl sulfoximide]
- IC50 [1]: 60 nM
- IC50 [2]: 40 nM
- IC50 [4]: 40 nM
- IC50 (MaTu-ADR): 40 nM
- IC50 (CDK2/CycE): 4 nM
- IC50 (CDK1/CycB): 4 nM
- IC50 [5]: 39 nM

Compound: CCC(Sc1nc(Nc2ccc(S(C)(=N)=O)cc2)ncc1Br)C(C)=O (racemic) (as salt: sodium) [Example 3.3, (RS)-S-[4-({4-[(RS)-(1-acetylpropyl)sulfanyl]-5-bromopyrimidin-2-yl}amino)phenyl]-S-methyl sulfoximide]
- melting point: 192 to 194 °C

Compound: C[C@H](CO)Nc1nc(Nc2ccc(S(=O)(CC3CC3)=NS(=O)(=O)CC[Si](C)(C)C)cc2)ncc1Br (mixture of isomers) [Example 1.7, (RS)-S-[4-({5-bromo-4-[(R)-(2-hydroxy-1-methylethyl)amino]pyrimidin-2-yl}amino)phenyl]-S-(cyclopropylmethyl)-N-[2-(trimethylsilyl)ethylsulfonyl]sulfoximide]
- melting point: 195 °C (dec.)

Compound: C[C@@H](Nc1nc(Nc2ccc(S(=O)(=NS(=O)(=O)CC[Si](C)(C)C)C3CCCC3)cc2)ncc1Br)C(C)(C)O (mixture of isomers) [Example 1.10, (RS)-S-[4-({5-bromo-4-[(R)-(2-hydroxy-1,2-dimethylpropyl)amino]pyrimidin-2-yl}amino)phenyl]-S-cyclopentyl-N-[2-(trimethylsilyl)ethylsulfonyl]sulfoximide]
- melting point: 200 to 201 °C

Compound: C[C@@H](Nc1nc(Nc2ccc(S(=N)(=O)C3CCCC3)cc2)ncc1Br)C(C)(C)O (mixture of isomers) [Example 1.11, (RS)-S-[4-({5-bromo-4-[(R)-(2-hydroxy-1,2-dimethylpropyl)amino]pyrimidin-2-yl}amino)phenyl]-S-cyclopentylsulfoximide]
- melting point: 194 to 196 °C

Compound: C[C@H](CO)Nc1nc(Nc2ccc(S(C)(=O)=NS(=O)(=O)CC[Si](C)(C)C)cc2)ncc1Br (mixture of isomers) [Example 2.1, (RS)-S-[4-({5-bromo-4-[(R)-(2-hydroxy-1-methylethyl)amino]pyrimidin-2-yl}amino)phenyl]-S-methyl-N-[2-(trimethylsilyl)ethylsulfonyl]sulfoximide]
- melting point: 194 to 197 °C

Compound: CCC(CO)Sc1nc(Nc2ccc(S(C)(=N)=O)cc2)ncc1Br (racemic) [Example 3.0, (RS)-S-[4-({5-bromo-4-[(RS)-(1-hydroxymethyl-propyl)sulfanyl]pyrimidin-2-yl}amino)phenyl]-S-methyl sulfoximide]
- IC50 [1]: 500 nM
- IC50 (CDK2/CycE): 16 nM
- IC50 (CDK1/CycB): 49 nM
- IC50 [5]: 170 nM
- melting point: 175 to 180 °C

Compound: CCC(C)Sc1nc(Nc2ccc(S(C)(=N)=O)cc2)ncc1Br (racemic) [Example 3.1, (RS)-S-[4-({5-bromo-4-[(RS)-(1-methyl-propyl)sulfanyl]pyrimidin-2-yl}amino)phenyl]-S-methyl sulfoximide]
- IC50 [1]: 400 nM
- IC50 (CDK2/CycE): 33 nM
- IC50 (CDK1/CycB): 97 nM
- IC50 [5]: 120 nM
- melting point: 175 to 183 °C

Compound: CC(O)C(C)Sc1nc(Nc2ccc(S(C)(=N)=O)cc2)ncc1Br (racemic) [Example 3.5, (RS)-S-[4-({5-bromo-4-[(RS,RS)-(2-hydroxy-1-methylpropyl)sulfanyl]pyrimidin-2-yl}amino)phenyl]-S-methyl sulfoximide]
- IC50 [1]: 120 nM
- IC50 [2]: 50 nM
- IC50 [4]: 60 nM
- IC50 (MaTu-ADR): 30 nM
- IC50 (CDK2/CycE): 8 nM
- IC50 (CDK1/CycB): 17 nM
- IC50 [5]: 150 nM

Compound: CC(Sc1nc(Nc2ccc(S(C)(=N)=O)cc2)ncc1Br)C(C)(C)O (racemic) [Example 3.7, (RS)-S-[4-({5-bromo-4-[(RS)-(2-hydroxy-1,2-dimethylpropyl)sulfanyl]pyrimidin-2-yl}amino)phenyl]-S-methyl sulfoximide]
- IC50 [1]: 100 nM
- IC50 [2]: < 100 nM
- IC50 [4]: < 100 nM
- IC50 (MaTu-ADR): < 100 nM
- IC50 (CDK1/CycB): 19 nM
- melting point: 201 to 202 °C

Compound: CCC(Sc1nc(Nc2ccc(S(C)(=N)=O)cc2)ncc1Br)C(C)(C)O (racemic) [Example 3.8, (RS)-S-[4-({5-bromo-4-[(RS)-(1-ethyl-2-hydroxy-2-methylpropyl)sulfanyl]pyrimidin-2-yl}amino)phenyl]-S-methyl sulfoximide]
- IC50 [1]: 400 nM
- IC50 [2]: 300 nM
- IC50 [4]: 300 nM
- IC50 (MaTu-ADR): 190 nM
- IC50 (CDK2/CycE): 27 nM
- IC50 [5]: > 1000 nM
- melting point: 218 °C (dec.)

Compound: CC(CO)Sc1nc(Nc2ccc(S(C)(=N)=O)cc2)ncc1Br (racemic) [Example 3.10, (RS)-S-[4-({5-bromo-4-[(RS)-(2-hydroxy-1-methyl-ethyl)sulfanyl]pyrimidin-2-yl}amino)phenyl]-S-methyl sulfoximide]
- IC50 [1]: 400 nM
- IC50 (CDK2/CycE): 4 nM
- IC50 (CDK1/CycB): 18 nM
- melting point: 218 to 220 °C

Compound: C[C@@H](Nc1nc(Nc2ccc(S(C)(=N)=O)cc2)ncc1Br)C(C)(C)O (single isomer, unassigned) [Example 1.3]
- IC50 [1]: < 100 nM
- IC50 [3]: 100 nM
- IC50 [4]: 200 nM
- IC50 (MaTu-ADR): 170 nM
